Measurements taken from PMC7003846, “Effects of the ventilatory stimulant, doxapram on human TASK‐3 (KCNK9, K2P9.1) channels and TASK‐1 (KCNK3, K2P3.1) channels” (Acta Physiologica (Oxford, England), 2019).

Assays:
human TASK-1 = target: T1, human TASK-1 (Homo sapiens, UniProt O14649); assay: Whole-cell patch clamp on tsA201 cells expressing cloned human TASK-1; format: cell-based
T1 construct: expressed in transfected cells; host or cells: tsA201 (modified HEK293), transient transfection, pcDNA3.1+
T1 sequence (O14649 whole entry): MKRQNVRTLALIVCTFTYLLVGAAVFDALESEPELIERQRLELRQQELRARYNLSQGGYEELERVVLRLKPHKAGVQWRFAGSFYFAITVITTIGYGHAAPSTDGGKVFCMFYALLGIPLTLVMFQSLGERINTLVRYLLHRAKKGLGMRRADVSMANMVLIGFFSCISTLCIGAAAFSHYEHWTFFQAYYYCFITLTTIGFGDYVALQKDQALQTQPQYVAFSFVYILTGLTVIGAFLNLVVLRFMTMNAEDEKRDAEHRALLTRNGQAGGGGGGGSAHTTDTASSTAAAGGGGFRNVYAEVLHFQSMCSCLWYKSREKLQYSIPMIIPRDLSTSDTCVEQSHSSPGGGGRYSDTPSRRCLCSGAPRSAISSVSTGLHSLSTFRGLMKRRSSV
Protocol: (§1) Murine (mur) wild‐type (WT) TASK‐1 (KCNK3, Genbank^TM DQ185133) and WT murTASK‐3 (KCNK9, Genbank^TM AH009585.2) cDNA were cloned into pCS2^+ vector and were a kind gift from William Wisden (Imperial College, UK). Human WT TASK‐1 (Genbank^TM AF006823.1), WT TASK‐3 (Genbank^TM AF212829) and WT TASK‐2 (KCNK5, Genbank^TM AF084830.1) cDNA’s, were cloned into pcDNA3.1^+ vector (Invitrogen) and were a kind gift from Helen Meadows (GlaxoSmithKline).
(§2) All experiments were performed using a modified human embryonic kidney 293 cell line, tsA201 (ECACC; Sigma‐Aldrich), prepared and maintained as previously described.54
(§3) For the electrophysiological experiments, cells were transiently transfected using a modified calcium phosphate protocol, following a process as previously described.54 Vectors cloned with the gene of interest and a similar vector encoding the cDNA for GFP were added to each well at a concentration of 0.5 µg per well, with the exception being for murTASK‐3, where 0.125 µg per well was used.
(§4) Currents were recorded from tsA201 cells transiently transfected with the channel of interest using whole‐cell patch clamp in a voltage clamp configuration and a step‐ramp voltage protocol as previously described.54 Briefly, all experiments were conducted at room temperature (20‐24°C) using an external solution composed of 145 mM of NaCl, 2.5 mM of KCL, 3 mM of MgCl2, 1 mM of CaCl2 and 10 mM of HEPES (pH 7.4, using NaOH) and an intracellular pipette solution composed of 150 mM of KCL, 3 mM of MgCl2, 5 mM of EGTA and 10 mM of HEPES (pH adjusted to 7.4 with KOH). External solution and modulatory compounds were superfused at a rate of 4‐5 mL min^−1. Currents were recorded using an Axopatch 1D patch clamp amplifier (Molecular Devices), filtered at 0.3 kHz, digitized at 1 kHz.
(§5) For analysis of outward current, we measured the current difference between the −80 and −40 mV. The current‐voltage graphs were obtained from the ramp change in voltage between −120 and +20 mV. For each cell, the current amplitude (pA) was normalized to the cell capacitance (pF). The currents obtained were analysed using pCLAMP 10.2 software (Molecular Devices), Microsoft Excel and GraphPad Prism 6 or 7 software. Data were expressed as the mean ± 95% Confidence Intervals (CI), and n represents the number of individual cells. For EC50 calculations, concentration‐response curves were fitted using the Hill equation. Statistical analysis used were one‐way ANOVA with a post‐hoc Dunnett's test or an unpaired/paired Student's t test. Data were considered statistically different if P < .05. The data and statistical analysis comply with the recommendations on experimental design and analysis in pharmacology.55

human TASK-3 = target: T2, human TASK-3 (Homo sapiens, UniProt Q9NPC2); assay: Whole-cell patch clamp on tsA201 cells expressing cloned human TASK-3; format: cell-based
T2 construct: expressed in transfected cells; host or cells: tsA201 (modified HEK293), transient transfection, pcDNA3.1+
T2 sequence (Q9NPC2 whole entry): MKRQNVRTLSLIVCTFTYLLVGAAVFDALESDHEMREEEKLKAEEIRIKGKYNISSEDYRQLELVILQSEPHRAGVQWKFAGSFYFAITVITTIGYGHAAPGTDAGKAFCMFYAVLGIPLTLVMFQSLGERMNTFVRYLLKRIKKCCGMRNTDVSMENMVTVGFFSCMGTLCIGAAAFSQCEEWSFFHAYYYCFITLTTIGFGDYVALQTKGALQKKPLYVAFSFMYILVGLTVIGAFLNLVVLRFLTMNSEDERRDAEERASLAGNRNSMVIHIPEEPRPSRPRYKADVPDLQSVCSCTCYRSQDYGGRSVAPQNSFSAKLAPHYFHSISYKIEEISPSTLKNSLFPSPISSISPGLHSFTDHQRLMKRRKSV
Protocol: as §1, §2, §3, §4, §5

human TASK-2 = target: T3, human TASK-2 (Homo sapiens, UniProt O95279); assay: Whole-cell patch clamp on tsA201 cells expressing cloned human TASK-2; format: cell-based; settings: acute application, read-out: inhibition of WT TASK-2 current
T3 construct: expressed in transfected cells; host or cells: tsA201 (modified HEK293), transient transfection, pcDNA3.1+
T3 sequence (O95279 1-499): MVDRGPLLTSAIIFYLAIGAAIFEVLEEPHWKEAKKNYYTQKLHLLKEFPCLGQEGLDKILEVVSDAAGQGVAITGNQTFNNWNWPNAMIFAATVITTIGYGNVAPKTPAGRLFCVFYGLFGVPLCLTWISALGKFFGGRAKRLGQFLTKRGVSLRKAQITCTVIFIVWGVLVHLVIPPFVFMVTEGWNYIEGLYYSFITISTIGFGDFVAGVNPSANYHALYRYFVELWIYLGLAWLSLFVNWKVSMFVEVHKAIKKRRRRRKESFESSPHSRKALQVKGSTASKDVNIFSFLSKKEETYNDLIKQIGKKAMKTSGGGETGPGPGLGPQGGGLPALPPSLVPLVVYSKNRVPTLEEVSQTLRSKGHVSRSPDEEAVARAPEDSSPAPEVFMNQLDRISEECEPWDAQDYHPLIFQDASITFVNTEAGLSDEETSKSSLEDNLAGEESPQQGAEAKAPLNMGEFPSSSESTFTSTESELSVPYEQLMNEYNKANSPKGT
Protocol: as §1
(§6) All experiments were performed using a modified human embryonic kidney 293 cell line, tsA201 (ECACC; Sigma‐Aldrich), prepared and maintained as previously described.54 […]
as §4, with “External solution and modulatory compounds were superfused at a rate of 4‐5 mL min^−1.” left out
(§7) For analysis of outward current, we measured the current difference between the −80 and −40 mV. […]

murTASK-1 = target: T4, murTASK-1 (Mus musculus, UniProt O35111); assay: Whole-cell patch clamp on tsA201 cells expressing cloned mouse TASK-1; format: cell-based
T4 construct: expressed in transfected cells; host or cells: tsA201 (modified HEK293), transient transfection, pCS2+
T4 sequence (O35111 whole entry): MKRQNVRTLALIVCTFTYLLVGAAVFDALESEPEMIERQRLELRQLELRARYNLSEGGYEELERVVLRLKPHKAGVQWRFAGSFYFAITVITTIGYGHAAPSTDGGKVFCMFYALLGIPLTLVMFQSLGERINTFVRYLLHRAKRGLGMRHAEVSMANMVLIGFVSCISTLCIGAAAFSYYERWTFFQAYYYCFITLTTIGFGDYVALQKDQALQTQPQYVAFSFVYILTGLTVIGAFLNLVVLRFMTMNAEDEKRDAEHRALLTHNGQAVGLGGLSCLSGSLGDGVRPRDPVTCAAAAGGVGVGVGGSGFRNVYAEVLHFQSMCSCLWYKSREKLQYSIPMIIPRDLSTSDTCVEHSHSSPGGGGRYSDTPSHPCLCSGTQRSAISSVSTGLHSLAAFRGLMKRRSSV
Protocol: as §1, §2, §3, §4, §5

murTASK-3 = target: T5, murTASK-3 (Mus musculus, UniProt Q3LS21); assay: Whole-cell patch clamp on tsA201 cells expressing cloned mouse TASK-3; format: cell-based
T5 construct: expressed in transfected cells; host or cells: tsA201 (modified HEK293), transient transfection, pCS2+
T5 sequence (Q3LS21 whole entry): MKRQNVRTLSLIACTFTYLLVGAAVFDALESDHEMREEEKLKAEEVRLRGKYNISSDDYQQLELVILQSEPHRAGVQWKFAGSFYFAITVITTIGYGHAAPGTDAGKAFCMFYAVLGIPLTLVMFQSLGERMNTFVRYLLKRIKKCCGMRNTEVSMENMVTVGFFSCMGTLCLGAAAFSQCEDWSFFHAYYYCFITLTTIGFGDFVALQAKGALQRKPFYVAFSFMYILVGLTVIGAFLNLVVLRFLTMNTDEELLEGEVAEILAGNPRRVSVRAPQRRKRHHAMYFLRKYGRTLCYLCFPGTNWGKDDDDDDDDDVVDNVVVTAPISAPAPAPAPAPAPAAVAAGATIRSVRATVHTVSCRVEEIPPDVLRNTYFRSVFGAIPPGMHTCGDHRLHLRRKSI
Protocol: as §1, §2, §3, §4, §5

[1] = target: T6, murTASK-3/murTASK-1 heterodimer channels (Mus musculus, UniProt O35111+Q3LS21); assay: Whole-cell patch clamp, forced heterodimer murTASK-3/murTASK-1; format: cell-based
T6 construct: expressed in transfected cells; host or cells: tsA201 (modified HEK293), transient transfection
T6 sequence (Q3LS21 whole entry): as above
T6 sequence (O35111 whole entry): as the sequence (O35111 whole entry) above
Protocol: as §1, §6
as §4, with “External solution and modulatory compounds were superfused at a rate of 4‐5 mL min^−1.” left out
as §7

[2] = target: T7, murTASK-1/murTASK-3 heterodimer channels (Mus musculus, UniProt O35111+Q3LS21); assay: Whole-cell patch clamp, forced heterodimer murTASK-1/murTASK-3; format: cell-based
T7 construct: expressed in transfected cells; host or cells: tsA201 (modified HEK293), transient transfection
T7 sequence (O35111 whole entry): as above
T7 sequence (Q3LS21 whole entry): as the sequence (Q3LS21 whole entry) above
Protocol: as §1, §6
as §4, with “External solution and modulatory compounds were superfused at a rate of 4‐5 mL min^−1.” left out
as §7

murT3_Δ250 = target: T8, murT3_Δ250 (Mus musculus, UniProt Q3LS21); assay: Whole-cell patch clamp, C-terminally truncated mouse TASK-3; format: cell-based
T8 construct: Removal of the carboxy terminal of murTASK‐3 (murT3) attenuates doxapram effect further; expressed in transfected cells; host or cells: tsA201 (modified HEK293), transient transfection
T8 sequence (Q3LS21 1-249 limits assumed, stated change not applied): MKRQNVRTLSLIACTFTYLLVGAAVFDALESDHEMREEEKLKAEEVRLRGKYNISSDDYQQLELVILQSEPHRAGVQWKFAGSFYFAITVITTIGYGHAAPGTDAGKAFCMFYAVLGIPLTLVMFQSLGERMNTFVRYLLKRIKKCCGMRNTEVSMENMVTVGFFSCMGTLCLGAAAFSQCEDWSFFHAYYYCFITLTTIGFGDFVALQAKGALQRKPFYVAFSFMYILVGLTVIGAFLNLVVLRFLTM
Description: as §1
(§8) Point mutations (L122D, G236D, L239D, V242D or a stop codon) were introduced by site‐directed mutagenesis into TASK‐3 cDNA using the Quikchange kit (Stratagene) as previously described.54 […]
as §4, with “External solution and modulatory compounds were superfused at a rate of 4‐5 mL min^−1.” left out, “kHz. […]” for “kHz.”

hTASK-3_Δ250 = target: T9, hTASK-3_Δ250 (Homo sapiens, UniProt Q9NPC2); assay: Whole-cell patch clamp, C-terminally truncated human TASK-3; format: cell-based
T9 construct: truncating the channel to remove the C‐terminal of the human TASK‐3 channel (hTASK‐3_Δ250); expressed in transfected cells; host or cells: tsA201 (modified HEK293), transient transfection
T9 sequence (Q9NPC2 1-249 limits assumed, stated change not applied): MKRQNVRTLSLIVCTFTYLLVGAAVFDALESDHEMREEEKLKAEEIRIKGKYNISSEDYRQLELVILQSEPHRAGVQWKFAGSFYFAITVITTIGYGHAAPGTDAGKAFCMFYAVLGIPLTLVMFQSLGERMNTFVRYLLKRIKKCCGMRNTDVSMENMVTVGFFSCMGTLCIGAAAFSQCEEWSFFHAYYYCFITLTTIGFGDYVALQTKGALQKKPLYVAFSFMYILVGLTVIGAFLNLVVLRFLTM
Description: as §1, §8
as §4, with “External solution and modulatory compounds were superfused at a rate of 4‐5 mL min^−1.” left out, “kHz. […]” for “kHz.”

TASK-3_L122D = target: T10, TASK-3_L122D (Homo sapiens, UniProt Q9NPC2, L122D); assay: Whole-cell patch clamp, human TASK-3 pore mutant L122D; format: cell-based
T10 construct: expressed in transfected cells; host or cells: tsA201 (modified HEK293), transient transfection
T10 sequence (Q9NPC2 whole entry L122D): as the sequence (Q9NPC2 whole entry) above, with L122D counted along it
Description: as §1, §8
as §4, with “External solution and modulatory compounds were superfused at a rate of 4‐5 mL min^−1.” left out, “kHz. […]” for “kHz.”

TASK-3_G236D = target: T11, TASK-3_G236D (Homo sapiens, UniProt Q9NPC2, G236D); assay: Whole-cell patch clamp, human TASK-3 pore mutant G236D; format: cell-based; settings: 10 µM (Figure 6C); read-out: percentage inhibition of TASK-3_G236D
T11 construct: expressed in transfected cells; host or cells: tsA201 (modified HEK293), transient transfection
T11 sequence (Q9NPC2 whole entry G236D): as the sequence (Q9NPC2 whole entry) above, with G236D counted along it
Description: as §1, §8
as §4, with “External solution and modulatory compounds were superfused at a rate of 4‐5 mL min^−1.” left out, “kHz. […]” for “kHz.”

TASK-3_L239D = target: T12, TASK-3_L239D (Homo sapiens, UniProt Q9NPC2, L239D); assay: Whole-cell patch clamp, human TASK-3 pore mutant L239D; format: cell-based; settings: 10 µM (Figure 6C); read-out: percentage inhibition of TASK-3_L239D
T12 construct: expressed in transfected cells; host or cells: tsA201 (modified HEK293), transient transfection
T12 sequence (Q9NPC2 1-374 L239D): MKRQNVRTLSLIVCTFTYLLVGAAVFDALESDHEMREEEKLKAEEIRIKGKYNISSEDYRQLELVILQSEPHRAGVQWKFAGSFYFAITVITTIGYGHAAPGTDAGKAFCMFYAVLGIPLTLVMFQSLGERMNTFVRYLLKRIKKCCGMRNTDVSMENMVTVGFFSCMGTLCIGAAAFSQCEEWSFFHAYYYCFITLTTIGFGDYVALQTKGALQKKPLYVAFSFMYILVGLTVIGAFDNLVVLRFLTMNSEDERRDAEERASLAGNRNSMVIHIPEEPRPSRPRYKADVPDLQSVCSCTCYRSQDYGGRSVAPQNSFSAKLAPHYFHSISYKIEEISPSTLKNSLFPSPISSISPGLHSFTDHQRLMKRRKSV
Description: as §1, §8
as §4, with “External solution and modulatory compounds were superfused at a rate of 4‐5 mL min^−1.” left out, “kHz. […]” for “kHz.”

TASK-3_V242D = target: T13, TASK-3_V242D (Homo sapiens, UniProt Q9NPC2, V242D); assay: Whole-cell patch clamp, human TASK-3 pore mutant V242D; format: cell-based; settings: 10 µM (Figure 6C); read-out: percentage inhibition of TASK-3_V242D
T13 construct: expressed in transfected cells; host or cells: tsA201 (modified HEK293), transient transfection
T13 sequence (Q9NPC2 whole entry V242D): as the sequence (Q9NPC2 whole entry) above, with V242D counted along it
Description: as §1, §8
as §4, with “External solution and modulatory compounds were superfused at a rate of 4‐5 mL min^−1.” left out, “kHz. […]” for “kHz.”

[3] = system: rat TASK-1 homodimeric channels; settings: cited from earlier work
[4] = system: rat TASK-1/TASK-3 heterodimeric channels; settings: cloned rat channels; cited from earlier work
[5] = system: rat TASK-3 homodimeric channels; settings: cloned rat channels; cited from earlier work
[6] = concentration-response 0.3-100 µM

CCN1CC(CCN2CCOCC2)C(c2ccccc2)(c2ccccc2)C1=O (stereo not shown) [doxapram, 1‐ethyl‐4‐(2‐morpholinoethyl)‐3,3‐diphenyl‐2‐pyrrolidinone]
recovery from inhibition of TASK-1 (human TASK-1; 10 µM, washout): slow and mostly incomplete | Hill slope, human TASK-1 (human TASK-1; [6]): 0.8 | inhibition at 10 µM (human TASK-1; tsA201, 10 µM, acute application, read-out: inhibition of human TASK-1 current): 55% | EC50 (human TASK-1; tsA201 cells, whole-cell patch clamp, room temperature, read-out: EC50, inhibition of human TASK-1 current): 4 µM | inhibition of human TASK-3 current (human TASK-3; 10 µM, acute application, WT): 62% | recovery from inhibition of TASK-3 (human TASK-3; 10 µM, washout): faster and more complete | Hill slope, human TASK-3 (human TASK-3; [6]): 0.8 | inhibition at 10 µM (human TASK-3; tsA201, 10 µM, acute application, WT, read-out: inhibition of human TASK-3 current): 68% | EC50 (human TASK-3; tsA201 cells, whole-cell patch clamp, room temperature, read-out: EC50, inhibition of human TASK-3 current): 2.5 µM | inhibition at 10 µM (human TASK-2): 7% | EC50 (murTASK-1; calculated from concentration-response curve, read-out: 50% effective concentration, murTASK-1): 1.5 µM | inhibition at 1 µM (murTASK-1; tsA201, 1 µM, acute application, read-out: current inhibition of murTASK-1): 28% | inhibition at 3 µM (murTASK-1; tsA201, 3 µM, acute application, read-out: current inhibition of murTASK-1): 43% | inhibition at 10 µM (murTASK-1; tsA201, 10 µM, acute application, read-out: current inhibition of murTASK-1): 58% | EC50 (murTASK-3; estimated, read-out: 50% effective concentration, murTASK-3): ≥ 100 µM | inhibition at 10 µM (murTASK-3; tsA201, 10 µM, acute application, read-out: current inhibition of murTASK-3): 21% | inhibition at 100 µM (murTASK-3; tsA201, 100 µM, acute application, read-out: current inhibition of murTASK-3): 56% | inhibition at 10 µM [1]: 42% | inhibition at 10 µM [2]: 58% | inhibition at 10 µM (murT3_Δ250): 4% | inhibition at 10 µM (hTASK-3_Δ250): 19% | inhibition at 10 µM (TASK-3_L122D; 10 µM (Figure 6C), read-out: percentage inhibition of TASK-3_L122D): 6% | inhibition at 10 µM (TASK-3_G236D): 26% | inhibition at 10 µM (TASK-3_L239D): 13% | inhibition at 10 µM (TASK-3_V242D): 27% | EC50 ([3]; cloned rat channels): 0.41 µM | fold more potent on TASK-1 or heteromultimers of TASK-1 and TASK-3 than on TASK-3 ([3]; rat channels): 90 fold | EC50 [4]: 9 µM | EC50 [5]: 37 µM

[Cl-].[Cl-].[Zn+2] [zinc, Zinc Chloride]
inhibition of human TASK-3 current (human TASK-3; 100 µM, acute application, WT): 94% | inhibition of TASK-3_L122D (TASK-3_L122D; 100 µM): 87%
